The values that follow come from patent publication US7629340B2, “N-(6-membered aromatic ring)-amido anti-viral compounds” (SmithKline Beecham Corporation, priority 2005, dated 2009).

The experiment can be described thus: Replicon Assay (luciferase, ET cell line). The class given is cell-based, HCV. The following applies: Hepatitis C virus; % inhibition of replication relative to no compound control, test concentration of 10 μM; ET cells, luciferase read 48-72 hours; read-out: % inhib at 10 uM. How it is done: A cell line, ET (Huh-lucubineo-ET) was used for screening of compounds of the present invention for HCV RNA dependent RNA polymerase. The ET cell line was stably transfected with RNA transcripts harboring a I389luc-ubi-neo/NS3-3′/ET; replicon with firefly luciferase-ubiquitin-neomycin phosphotransferase fusion protein and EMCV-IRES driven NS3-5B polyprotein containing the cell culture adaptive mutations (E1202G; T1280I; K1846T) (Krieger at al, 2001 and unpublished). The ET cells were grown in DMEM, supplemented with 10% fetal calf serum, 2 mM Glutamine, Penicillin (100 IU/mL)/Stretomycin (100 μg/mL), 1× nonessential amino acids, and 250 μg/mL G418 (“Geneticin”). They were all available through Life Technologies (Bethesda, Md.). The cells were plated at 0.5−1.0×10^4 cells/well in the 96 well plates and incubated for 24 hrs before adding nucleoside analogs. […] Luciferase activity were measured 48-72 hours later by adding a lysis buffer and the substrate (Catalog number Glo-lysis buffer E2661 and Bright-Glo luciferase system E2620 Promega, Madison, Wis.). Cells should not be too confluent during the assay. Percent inhibition of replication was plotted relative to no compound control. Under the same condition, cytotoxicity of the compounds was determined using cell proliferation reagent, WST-1 (Roche, Germany). The compounds showing antiviral activities, but no significant cytotoxicities were chosen to determine IC50 and TC50. For these determinations, 10 concentration of each compound were used. Concentrations for test compounds typically span a range of 500 fold. IC50 and TC50 values were calculated by fitting % inhibition at each concentration (I) to the following equation: % inhibition=100%/[1+10^(log IC50−log(I))*b] where b is Hill's coefficient.
For `O=C1Nc2ccc(-c3cccc(NC(=O)[C@@H]4CCCN4C(=O)OCc4ccccc4)c3)cc2C1=O` [Compound 6084, 2-[3-(2,3-Dioxo-2,3-dihydro-1H-indol-5-yl)-phenylcarbamoyl]-pyrrolidine-1-carboxylic acid benzyl ester], the inhibition at 10 µM turned out to be 3.35%.

For the molecule `O=C1Cc2cc(-c3cccc(NC(=O)[C@@H]4CCCN4C(=O)OCc4ccccc4)c3)ccc2N1` [Compound 6083, 2-[3-(2-Oxo-2,3-dihydro-1H-indol-5-yl)-phenylcarbamoyl]-pyrrolidine-1-carboxylic acid benzyl ester], the inhibition at 10 µM came to 93.8%.

As to `O=C(NC1CC1)c1ccc(NC(=O)[C@@H]2CCCN2C(=O)OCc2ccccc2)cc1` [Compound 6305, 2-(4-Cyclopropylcarbamoyl-phenylcarbamoyl)-pyrrolidine-1-carboxylic acid benzyl ester], the inhibition at 10 µM was determined as 88.2%. To `CC(=O)c1ccc(-c2cccc(NC(=O)[C@@H]3CCCN3C(=O)OCc3ccccc3)c2)s1` [Compound 6048, 2-[3-(5-Acetyl-thiophen-2-yl)-phenylcarbamoyl]-pyrrolidine-1-carboxylic acid benzyl ester] belongs 36.9%; to `COc1ccc(OC)c(-c2ccc(NC(=O)[C@@H]3CCCN3C(=O)OCc3ccccc3)cc2)c1` [Compound 6007, 2-(2′,5′-Dimethoxy-biphenyl-4-ylcarbamoyl)-pyrrolidine-1-carboxylic acid benzyl ester], 93.4%; to `Cc1ccc2cc(-c3cccc(NC(=O)[C@@H]4CCCN4C(=O)OCc4ccccc4)c3)ccc2n1` [Compound 6085, 2-[3-(2-Methyl-quinolin-6-yl)-phenylcarbamoyl]-pyrrolidine-1-carboxylic acid benzyl ester], 39.7%. For the molecule `CNc1cccc(-c2cccc(NC(=O)[C@@H]3CCCN3C(=O)OCc3ccccc3)c2)c1` [Compound 6089, 2-(3′-Methylamino-biphenyl-3-ylcarbamoyl)-pyrrolidine-1-carboxylic acid benzyl ester], the inhibition at 10 µM was found to be 76.4%. As to `O=C(Nc1cccc(-c2cccc([N+](=O)[O-])c2)c1)[C@@H]1CCCN1C(=O)OCc1ccccc1` [Compound 6309, 2-(3′-Nitro-biphenyl-3-ylcarbamoyl)-pyrrolidine-1-carboxylic acid benzyl ester], the inhibition at 10 µM worked out at 99.8%. As for `Cc1nc2cc(-c3cccc(NC(=O)[C@@H]4CCCN4C(=O)OCc4ccccc4)c3)ccc2s1` [Compound 6091, 2-[3-(2-Methyl-benzothiazol-5-yl)-phenylcarbamoyl]-pyrrolidine-1-carboxylic acid benzyl ester], the inhibition at 10 µM is 97.7%.

For the molecule `O=C(Nc1ccc(-c2cccc(COc3ccccc3)c2)cc1)[C@@H]1CCCN1C(=O)OCc1ccccc1` [Compound 6021, 2-(3′-Phenoxymethyl-biphenyl-4-ylcarbamoyl)-pyrrolidine-1-carboxylic acid benzyl ester], the inhibition at 10 µM worked out at 56.1%.

Regarding `COc1cccc(-c2cccc(NC(=O)[C@@H]3CCCN3C(=O)OCc3ccccc3)c2)c1OC` [Compound 6026, 2-(2′,3′-Dimethoxybiphenyl-3-yl-carbamoyl)-pyrrolidine-1-carboxylic acid benzyl ester], the inhibition at 10 µM was 98.7%. In the case of `O=C(Nc1cccc(-c2ccc3c(c2)OCO3)c1)[C@@H]1CCCN1C(=O)OCc1ccccc1` [Compound 6043, 2-(3-Benzo[1,3]dioxol-5-yl-phenylcarbamoyl)-pyrrolidine-1-carboxylic acid benzyl ester], the inhibition at 10 µM turned out to be 93.9%. To `O=C(Nc1cccc(-c2cccc(O)c2)c1)[C@@H]1CCCN1C(=O)OCc1ccccc1` [Compound 6092, 2-(3′-Hydroxy-biphenyl-3-ylcarbamoyl)-pyrrolidine-1-carboxylic acid benzyl ester] belongs 95.3%; to `COc1ccccc1-c1cccc(NC(=O)[C@@H]2CCCN2C(=O)OCc2ccccc2)c1` [Compound 6031, 2-(2′-Methoxybiphenyl-3-yl-carbamoyl)-pyrrolidine-1-carboxylic acid benzyl ester], 28.6%. Regarding `CC1CCN(S(=O)(=O)c2ccc(NC(=O)[C@@H]3CCCN3C(=O)OCc3ccccc3)cc2)CC1` [Compound 6003, 2-[4-(4-Methyl-piperidine-1-sulfonyl)-phenylcarbamoyl]-pyrrolidine-1-carboxylic acid benzyl ester], the inhibition at 10 µM was 1.21%. To `CN(C)c1cccc(-c2cccc(NC(=O)[C@@H]3CCCN3C(=O)OCc3ccccc3)c2)c1` [Compound 6096, 2-(3′-Dimethylamino-biphenyl-3-ylcarbamoyl)-pyrrolidine-1-carboxylic acid benzyl ester] belongs 53.3%; to `O=C(Nc1cccc(-c2ccc3cc[nH]c3c2)c1)[C@@H]1CCCN1C(=O)OCc1ccccc1` [Compound 6097, 2-[3-(1H-Indol-6-yl)-phenylcarbamoyl]-pyrrolidine-1-carboxylic acid benzyl ester], 99.8%; to `O=C(Nc1cccc(Oc2c(F)c(F)c(F)c(F)c2F)c1)[C@@H]1CCCN1C(=O)OCc1ccccc1` [Compound 6012, 2-(3-Pentafluorophenyloxy-phenylcarbamoyl)-pyrrolidine-1-carboxylic acid benzyl ester], 44.5%.
